Molecules are shown by their SMILES.

Take `Nc1ccc(-c2cc(-c3cc(-c4ccc(C(F)(F)F)cc4)cc(C4CC4)n3)ccn2)cn1` [Example 77, 6-Cyclopropyl-4-(4-trifluoromethyl-phenyl)-[2,4′;2′,3″]terpyridin-6″-ylamine]: the melting point – broadly, the temperature, or range, at which the solid turns liquid – lay in the range of 172 to 174 °C.

For `Nc1ncc(-c2cc(-c3cc(-c4ccc(C(F)(F)F)cc4)cc(C4CC4)n3)ccn2)cn1` [Example 78, 5-[6-Cyclopropyl-4-(4-trifluoromethyl-phenyl)-[2,4′]bipyridinyl-2′-yl]-pyrimidin-2-ylamine], the melting point was 242 to 245 °C.

On to `Cc1cc(-c2ccc(C(F)(F)F)cc2)cc(-c2cccc(-c3ccncc3)c2)n1` [Example 79, 2-Methyl-6-(3-pyridin-4-yl-phenyl)-4-(4-trifluoromethyl-phenyl)-pyridine], for which the melting point was in the range of 143 to 147 °C.

`Cc1cc(-c2ccc(Cl)cc2)cc(-n2cnc(-c3ccc(N)nc3)c2)n1` [Example 80, 5-{1-[4-(4-Chloro-phenyl)-6-methyl-pyridin-2-yl]-1H-imidazol-4-yl}-pyridin-2-ylamine] had a melting point of 230 to 233 °C.

For `Cc1cc(-c2ccc(Cl)cc2)cc(-c2cncc(-c3ccc(N)nc3)c2)n1` [Example 81, 4-(4-Chloro-phenyl)-6-methyl-[2,3′;5′,3″]terpyridin-6″-ylamine], the melting point was 188 to 192 °C.

`Cc1cc(-c2ccc(Cl)cc2)cc(-c2cccc(-c3cnc(N)nc3)c2)n1` [Example 82, 5-{3-[4-(4-Chloro-phenyl)-6-methyl-pyridin-2-yl]-phenyl}-pyrimidin-2-ylamine] gave a melting point of 197 to 199 °C.

The compound `NS(=O)(=O)c1cccc(-c2cccc(-c3cc(C(F)(F)F)cc(-c4ccc(C(F)(F)F)cc4)n3)c2)c1` [Example 83, 3′-[4-Trifluoromethyl-6-(4-trifluoromethyl-phenyl)-pyridin-2-yl]-biphenyl-3-sulfonic acid amide] had a melting point of 176 to 179 °C.

For the compound `FC(F)(F)c1cc(-c2ccc(Cl)cc2)nc(-c2ccnc(-c3cccnc3)c2)n1` [Example 84, 4-[4-(4-Chloro-phenyl)-6-trifluoromethyl-pyrimidin-2-yl]-[2,3]bipyridinyl], the melting point is 226 °C.

Compound `FC(F)(F)c1ccc(-c2cc(C(F)(F)F)nc(-c3ccnc(-c4cccnc4)c3)n2)cc1` [Example 85, 4-[4-Trifluoromethyl-6-(4-trifluoromethyl-phenyl)-pyrimidin-2-yl]-[2,3′]bipyridinyl] yielded a melting point of 247 °C.

Compound `FC(F)(F)c1cc(-c2ccc(Cl)cc2)nc(-c2ccnc(-c3ccncc3)c2)n1` [Example 86, 4-[4-(4-Chloro-phenyl)-6-trifluoromethyl-pyrimidin-2-yl]-[2,4′]bipyridinyl] came in with a melting point of 193 °C.

The compound `CCOc1cc(-c2cc(C(F)(F)F)nc(-n3cnc(-c4ccc(N)nc4)c3)n2)ccc1C(F)(F)F` [Example 87, 5-{1-[4-(3-Ethoxy-4-trifluoromethyl-phenyl)-6-trifluoromethyl-pyrimidin-2-yl]-1H-imidazol-4-yl}-pyridin-2-ylamine] registered a melting point of 266.5 °C.

`Nc1ccc(-c2cc(-c3nc(-c4ccc(C(F)(F)F)cc4)cc(C(F)F)n3)ccn2)cn1` [Example 88, 4-[4-Difluoromethyl-6-(4-trifluoromethyl-phenyl)-pyrimidin-2-yl]-[2,3′]bipyridinyl-6′-ylamine] yielded a melting point of 210 °C.

Compound `CCOc1cc(-c2cc(C(F)(F)F)nc(-c3nc(-c4ccc(S(N)(=O)=O)cc4)no3)n2)ccc1C(F)(F)F` [Example 89, 4-{5-[4-(3-Ethoxy-4-trifluoromethyl-phenyl)-6-trifluoromethyl-pyrimidin-2-yl]-[1,2,4]oxadiazol-3-yl}-benzenesulfonamide] had a melting point of 250.5 °C.

On to `CCOc1cc(-c2cc(C(F)(F)F)nc(-c3nc(-c4cccc(S(N)(=O)=O)c4)no3)n2)ccc1C(F)(F)F` [Example 91, 3-{5-[4-(3-Ethoxy-4-trifluoromethyl-phenyl)-6-trifluoromethyl-pyrimidin-2-yl]-[1,2,4]oxadiazol-3-yl}-benzenesulfonamide], for which the melting point came to 227 °C.

`CCOc1cc(-c2cc(C(F)(F)F)nc(-c3ccnc(-c4ccc(N)nc4)c3)n2)ccc1C(F)(F)F` [Example 92, 4-[4-(3-Ethoxy-4-trifluoromethyl-phenyl)-6-trifluoromethyl-pyrimidin-2-yl]-[2,3′]bipyridinyl-6′-ylamine] registered a melting point of 222 °C.

On to `CCOc1cc(-c2cc(C(F)(F)F)nc(-c3cccc(-c4ccc(N)nc4)c3)n2)ccc1C(F)(F)F` [Example 93, 5-{3-[4-(3-Ethoxy-4-trifluoromethyl-phenyl)-6-trifluoromethyl-pyrimidin-2-yl]-phenyl}-pyridin-2-ylamine], for which the melting point is 208 °C.

With `Nc1ccc(-c2cn(-c3nc(-c4ccc(C(F)(F)F)c(F)c4)cc(C(F)(F)F)n3)cn2)cn1` [Example 94, 5-{1-[4-(3-Fluoro-4-trifluoromethyl-phenyl)-6-trifluoromethyl-pyrimidin-2-yl]-1H-imidazol-4-yl}-pyridin-2-ylamine], the melting point stood at 309 °C.

The compound `CC(=O)Nc1ccc(-c2cn(-c3nc(-c4ccc(C(F)(F)F)cc4)cc(C(F)(F)F)n3)cn2)cn1` [Example 95, N-(5-{1-[4-Trifluoromethyl-6-(4-trifluoromethyl-phenyl)-pyrimidin-2-yl]-1H-imidazol-4-yl}-pyridin-2-yl)-acetamide] yielded a melting point of 314 °C.

Take `Nc1ccc(-c2cccc(-c3nc(-c4ccc(C(F)(F)F)c(F)c4)cc(C(F)(F)F)n3)c2)cn1` [Example 96, 5-{3-[4-(3-Fluoro-4-trifluoromethyl-phenyl)-6-trifluoromethyl-pyrimidin-2-yl]-phenyl}-pyridin-2-ylamine]: the melting point is 212 °C.

Turning to `Nc1ccc(-c2cccc(-c3nc(-c4ccc(Cl)c(Cl)c4)cc(C(F)(F)F)n3)c2)cn1` [Example 97, 5-{3-[4-(3,4-Dichloro-phenyl)-6-trifluoromethyl-pyrimidin-2-yl]-phenyl}-pyridin-2-ylamine], the melting point was found to be 179 °C.

On to `NS(=O)(=O)c1ccc(-c2noc(-c3nc(-c4ccc(Cl)c(Cl)c4)cc(C(F)(F)F)n3)n2)cc1` [Example 98, 4-{5-[4-(3,4-Dichloro-phenyl)-6-trifluoromethyl-pyrimidin-2-yl]-[1,2,4]oxadiazol-3-yl}-benzenesulfonamide], for which the melting point amounted to 302.5 °C.

The compound `NS(=O)(=O)c1cccc(-c2noc(-c3nc(-c4ccc(Cl)c(Cl)c4)cc(C(F)(F)F)n3)n2)c1` [Example 99, 3-{5-[4-(3,4-Dichloro-phenyl)-6-trifluoromethyl-pyrimidin-2-yl]-[1,2,4]oxadiazol-3-yl}-benzenesulfonamide] came in with a melting point of 258 °C.

Take `Nc1ccc(-c2noc(-c3nc(-c4ccc(Cl)c(Cl)c4)cc(C(F)(F)F)n3)n2)cn1` [Example 100, 5-{5-[4-(3,4-Dichloro-phenyl)-6-trifluoromethyl-pyrimidin-2-yl]-[1,2,4]oxadiazol-3-yl}-pyridin-2-ylamine]: the melting point is 227 °C.

`Nc1ccc(-c2nccc(-c3nc(-c4ccc(C(F)(F)F)cc4)cc(C(F)(F)F)n3)n2)cn1` [Example 101, 5-[6-Trifluoromethyl-4-(4-trifluoromethyl-phenyl)-[2,4′]bipyrimidinyl-2′-yl]-pyridin-2-ylamine] had a melting point of 236.5 °C.

The compound `Nc1ccc(-c2cn(-c3nc(-c4ccc(Cl)c(Cl)c4)cc(C(F)(F)F)n3)cn2)cn1` [Example 102, 5-{1-[4-(3,4-Dichloro-phenyl)-6-trifluoromethyl-pyrimidin-2-yl]-1H-imidazol-4-yl}-pyridin-2-ylamine] came in with a melting point of 282.5 °C.

For `Cc1cc(-c2cc(C(F)(F)F)nc(-n3cnc(-c4ccc(N)nc4)c3)n2)ccc1Cl` [Example 104, 5-{1-[4-(4-Chloro-3-methyl-phenyl)-6-trifluoromethyl-pyrimidin-2-yl]-1H-imidazol-4-yl}-pyridin-2-ylamine], the melting point was 276 °C.

In turn, `Cc1cc(-c2cc(C(F)(F)F)nc(-c3cccc(-c4ccc(N)nc4)c3)n2)ccc1Cl` [Example 105, 5-{3-[4-(4-Chloro-3-methyl-phenyl)-6-trifluoromethyl-pyrimidin-2-yl]-phenyl}-pyridin-2-ylamine] gave a melting point of 168.5 °C.

Turning to `Cc1cc(-c2cc(C(F)(F)F)nc(-c3nc(-c4cccc(S(N)(=O)=O)c4)no3)n2)ccc1Cl` [Example 106, 3-{5-[4-(4-Chloro-3-methyl-phenyl)-6-trifluoromethyl-pyrimidin-2-yl]-[1,2,4]oxadiazol-3-yl}-benzenesulfonamide], the melting point amounted to 246 °C.

Regarding `Cc1cc(-c2cc(C(F)(F)F)nc(-c3nc(-c4ccc(N)nc4)no3)n2)ccc1Cl` [Example 107, 5-{5-[4-(4-Chloro-3-methyl-phenyl)-6-trifluoromethyl-pyrimidin-2-yl]-[1,2,4]oxadiazol-3-yl}-pyridin-2-ylamine], the melting point is 199.5 °C.

Consider `Cc1cc(-c2cc(C(F)(F)F)nc(-c3ccnc(-c4ccc(N)nc4)c3)n2)ccc1Cl` [Example 108, 4-[4-(4-Chloro-3-methyl-phenyl)-6-trifluoromethyl-pyrimidin-2-yl]-[2,3′]bipyridinyl-6′-ylamine], for which the melting point came to 207 °C.

`Cc1cc(-c2ccc(Cl)cc2)nc(-c2cccc(-c3ccc(N)nc3)c2)n1` [Example 109, 5-{3-[4-(4-Chloro-phenyl)-6-methyl-pyrimidin-2-yl]-phenyl}-pyridin-2-ylamine] had a melting point of 168.5 °C.

Consider `Cc1cc(-c2ccc(Cl)cc2)nc(-c2cccc(-c3cnc(N)nc3)c2)n1` [Example 110, 5-{3-[4-(4-Chloro-phenyl)-6-methyl-pyrimidin-2-yl]-phenyl}-pyrimidin-2-ylamine], for which the melting point amounted to 228 °C.

`Nc1ccc(-c2cn(-c3nc(-c4ccc(C(F)(F)F)cc4)cc(C(F)(F)F)n3)cn2)cc1` [Example 111, 4-{1-[4-Trifluoromethyl-6-(4-trifluoromethyl-phenyl)-pyrimidin-2-yl]-1H-imidazol-4-yl}-phenylamine] showed a melting point of 270 °C.

Consider `Cc1cc(-c2ccc(Cl)cc2)nc(-c2ccnc(-c3ccc(N)nc3)c2)n1` [Example 112, 4-[4-(4-Chloro-phenyl)-6-methyl-pyrimidin-2-yl]-[2,3′]bipyridinyl-6′-ylamine], for which the melting point worked out at 199 °C.

(Values after patent publication US8183262B2, “Pyridine derivatives as mGluR2 antagonists” (Hoffmann-La Roche Inc., priority 2007, dated 2012).)
